Tests used:
Conditions in all cases: 72 h
[1] = system: Caco-2; experiment: cell viability relative to DMSO; higher = less toxic
[2] = system: HepG2; experiment: as above
[3] = system: Vero E6; experiment: as above
[4] = system: Calu-3; experiment: as above
[5] = system: Caco-2; experiment: relative viability EC50 (midpoint between 100% and the lowest measured viability); higher = less toxic
[6] = system: HepG2; experiment: as above
[7] = system: Vero E6; experiment: as above
[8] = system: Calu-3; experiment: as above
[9] = system: Caco-2; experiment: drug sensitivity score (DSS) for viability; higher = more toxic; extreme values may be limits of the assay
[10] = system: HepG2; experiment: as above
[11] = system: Vero E6; experiment: as above
[12] = system: Calu-3; experiment: as above
[13] = system: U2OS; experiment: cell viability relative to DMSO; higher = less toxic
[14] = system: U2OS; experiment: relative viability EC50 (midpoint between 100% and the lowest measured viability); higher = less toxic
[15] = system: U2OS; experiment: drug sensitivity score (DSS) for viability; higher = more toxic; extreme values may be limits of the assay

| Compound | cell viability ([1]; 1 nM) [%] | cell viability ([1]; 10 nM) [%] | cell viability ([1]; 100 nM) [%] | cell viability ([1]; 1000 nM) [%] | cell viability ([1]; 10000 nM) [%] | cell viability ([2]; 1 nM) [%] | cell viability ([2]; 10 nM) [%] | cell viability ([2]; 100 nM) [%] | cell viability ([2]; 1000 nM) [%] | cell viability ([2]; 10000 nM) [%] | cell viability ([3]; 1 nM) [%] | cell viability ([3]; 10 nM) [%] | cell viability ([3]; 100 nM) [%] | cell viability ([3]; 1000 nM) [%] | cell viability ([3]; 10000 nM) [%] | cell viability ([4]; 1 nM) [%] | cell viability ([4]; 10 nM) [%] | cell viability ([4]; 100 nM) [%] | cell viability ([4]; 1000 nM) [%] | cell viability ([4]; 10000 nM) [%] | relative viability EC50 [5] [µM] | relative viability EC50 [6] [µM] | relative viability EC50 [7] [µM] | relative viability EC50 [8] [µM] | drug sensitivity score [9] | drug sensitivity score [10] | drug sensitivity score [11] | drug sensitivity score [12] | cell viability ([13]; 1 nM) [%] | cell viability ([13]; 10 nM) [%] | cell viability ([13]; 100 nM) [%] | cell viability ([13]; 1000 nM) [%] | cell viability ([13]; 10000 nM) [%] | relative viability EC50 [14] [µM] | drug sensitivity score [15] |
| --- | --- | --- | --- | --- | --- | --- | --- | --- | --- | --- | --- | --- | --- | --- | --- | --- | --- | --- | --- | --- | --- | --- | --- | --- | --- | --- | --- | --- | --- | --- | --- | --- | --- | --- | --- |
| CC(C)(C)C(=O)C(Oc1ccc(Cl)cc1)n1ccnc1 (centres undefined) [climbazole] | 108 | 100 | 104 | 97 | 98.2 | 113 | 104 | 93.8 | 107 | 102 | 96.6 | 101 | 98.1 | 92.2 | 97.1 | 94.5 | 102 | 98.3 | 94.7 | 101 | > 10 | > 10 | > 10 | > 10 | 0 | 0 | 0 | 0 | – | – | – | – | – | – | – |
| O=C(O)c1cc(Oc2ccc([N+](=O)[O-])cc2)cc(Oc2ccc([N+](=O)[O-])cc2)c1 [compound-w] | – | – | – | – | – | 106 | 98.9 | 102 | 104 | 108 | – | – | – | – | – | 107 | 104 | 105 | 96.9 | 94.6 | – | > 10 | – | > 10 | – | 0 | – | 0 | – | – | – | – | – | – | – |
| O=C1CN(/N=C/c2ccc(-c3ccc([N+](=O)[O-])cc3)o2)C(=O)N1 [dantrolene] | 110 | 97.1 | 91.7 | 97.8 | 89.7 | 102 | 101 | 95.6 | 101 | 107 | – | – | – | – | – | 102 | 95 | 106 | 102 | 112 | > 10 | > 10 | – | > 10 | 0 | 0 | – | 0 | 96.8 | 101 | 96.1 | 103 | 95.6 | > 10 | 0 |
| OC(CCCN1CCCCC1)(c1ccccc1)c1ccccc1 [diphenidol] | 90.3 | 93.3 | 90.5 | 102 | 87.8 | 96.1 | 101 | 102 | 109 | 105 | – | – | – | – | – | 120 | 104 | 97.8 | 106 | 98.6 | > 10 | > 10 | – | > 10 | 0 | 0 | – | 0 | 104 | 98.9 | 103 | 99.5 | 100 | > 10 | 0 |
| CCOc1c(N2CCOCC2)cnn(C)c1=O [emorfazone] | 99.1 | 119 | 112 | 127 | 108 | 106 | 109 | 97.2 | 118 | 108 | 95.3 | 93.6 | 98.3 | 96.2 | 99.4 | – | – | – | – | – | > 10 | > 10 | > 10 | – | 0 | 0 | 0 | – | 96.4 | 93.1 | 93.8 | 96.1 | 104 | > 10 | 0 |
| COc1cc(OC)cc(N(CCNC(C)C)c2ccc3ncc(-c4cnn(C)c4)nc3c2)c1 [erdafitinib] | 90.1 | 99.3 | 94 | 99.3 | 65.2 | 101 | 111 | 104 | 99.4 | 39.2 | 94 | 99 | 92 | 98.9 | 35.9 | 109 | 90.2 | 92.3 | 89.6 | 81.4 | – | 3.09 | 3.04 | > 10 | 1.7 | 3.4 | 3.6 | 1.3 | 101 | 97.3 | 91.5 | 84 | 53.1 | – | 4.1 |
| CCOC(=O)c1cncn1[C@H](C)c1ccccc1 [etomidate] | – | – | – | – | – | 95 | 86.3 | 97.3 | 100 | 91.7 | 102 | 96.4 | 104 | 89.1 | 106 | 94.2 | 111 | 97.1 | 102 | 100 | – | > 10 | > 10 | > 10 | – | 0 | 0 | 0 | 91.8 | 99.2 | 94.4 | 97.2 | 102 | > 10 | 0 |
| COc1c(N2CCNC(C)C2)c(F)cc2c(=O)c(C(=O)O)cn(C3CC3)c12 (centres undefined) [gatifloxacin] | 95.7 | 99.9 | 97.6 | 100 | 96.8 | 99.1 | 101 | 95.9 | 98.7 | 100 | – | – | – | – | – | 101 | 114 | 103 | 103 | 89.4 | > 10 | > 10 | – | > 10 | 0 | 0 | – | 0 | 102 | 98.5 | 94.7 | 95.2 | 93 | > 10 | 0 |
| CN(C)c1ccc2c(c1)Sc1cc(N(C)C)ccc1N2 [leucomethylene-blue] | 95.2 | 99 | 102 | 94.1 | 23.1 | 93.1 | 93.2 | 93.6 | 76.4 | 7.7 | 95.8 | 97.1 | 93.9 | 85.2 | 45.9 | 101 | 102 | 102 | 109 | 9 | 2.54 | 1.53 | 1.55 | 3.65 | 5.2 | 8.7 | 4.9 | 4.4 | 99.5 | 94.1 | 97.2 | 99.6 | 56.9 | – | 2.2 |
| CN(C)C(=N)NC(=N)N [metformin] | 106 | 95.7 | 90.2 | 104 | 109 | 93.4 | 96.7 | 97.2 | 94.3 | 93 | 93.6 | 102 | 103 | 103 | 102 | 103 | 103 | 85.6 | 101 | 89.1 | > 10 | > 10 | > 10 | > 10 | 0 | 0 | 0 | 0 | – | – | – | – | – | – | – |
| C[C@@H]1C/C=C/C=C/C=C/C=C/[C@H](O[C@@H]2O[C@H](C)[C@@H](O)[C@H](N)[C@@H]2O)C[C@@H]2O[C@](O)(C[C@@H](O)C[C@H]3O[C@@H]3/C=C/C(=O)O1)C[C@H](O)[C@H]2C(=O)O [natamycin] | 90.9 | 103 | 95.3 | 97.1 | 107 | 89.7 | 91.6 | 92.5 | 93.3 | 94.8 | 95.7 | 96.6 | 93.3 | 88.7 | 105 | – | – | – | – | – | > 10 | > 10 | > 10 | – | 0 | 0 | 0 | – | 95.9 | 97.5 | 94.3 | 102 | 108 | > 10 | 0 |
| Nc1nc2ccc(OC(F)(F)F)cc2s1 [riluzole] | 97.4 | 90.4 | 91.7 | 103 | 96.9 | 97.9 | 106 | 96.6 | 94.7 | 105 | 93.4 | 98.1 | 98.7 | 99.5 | 104 | 96 | 100 | 109 | 97.5 | 103 | > 10 | > 10 | > 10 | > 10 | 0 | 0 | 0 | 0 | – | – | – | – | – | – | – |
| CC1(C)CN(C(=O)c2ccc(-c3cccc4nc(NC(=O)C5CC5)nn34)cc2)C1 [solcitinib] | 99.1 | 99.8 | 92.9 | 87.3 | 81.7 | 105 | 112 | 99.6 | 98.4 | 96.6 | – | – | – | – | – | 106 | 94.5 | 102 | 101 | 92.2 | > 10 | > 10 | – | > 10 | 1.5 | 0 | – | 0 | 101 | 97.3 | 101 | 97.2 | 96.8 | > 10 | 0 |
| O=C(O)COc1cccc(CN(Cc2ccc(-n3cccn3)cc2)S(=O)(=O)c2cccnc2)c1 [taprenepag] | 104 | 102 | 99.2 | 109 | 93.9 | 92.5 | 104 | 93.8 | 104 | 96.4 | 105 | 97.2 | 97.5 | 102 | 104 | 109 | 95.6 | 94.5 | 92.9 | 91.7 | > 10 | > 10 | > 10 | > 10 | 0 | 0 | 0 | 0 | – | – | – | – | – | – | – |
| CC(=O)Nc1ccc(NC(=S)NC(=O)c2ccc(C(C)(C)C)cc2)cc1 [tenovin-1] | 94.7 | 91.4 | 106 | 100 | 88.7 | 113 | 89.6 | 104 | 56.8 | 42.4 | 99.9 | 98.8 | 105 | 67.8 | 61.7 | 108 | 95.1 | 95.8 | 90.9 | 77.2 | > 10 | 0.65 | – | > 10 | 0 | 8.2 | 5.6 | 1.3 | 95.6 | 96.8 | 96.2 | 103 | 98.3 | > 10 | 0 |
| CN1c2ccccc2C(NCCCCCCC(=O)O)c2ccc(Cl)cc2S1(=O)=O (centres undefined) [tianeptine] | 103 | 92.7 | 107 | 94.8 | 92.8 | 100 | 108 | 96.2 | 108 | 98.6 | 104 | 102 | 101 | 94.1 | 88.1 | 100 | 103 | 92.4 | 102 | 102 | > 10 | > 10 | > 10 | > 10 | 0 | 0 | 0.3 | 0 | – | – | – | – | – | – | – |
| N=C(N)NCCC[C@H](NC(=O)[C@@H]1CCCN1C(=O)[C@@H]1CSSC[C@H](N)C(=O)N[C@@H](Cc2ccc(O)cc2)C(=O)N[C@@H](Cc2ccccc2)C(=O)N[C@@H](CCC(N)=O)C(=O)N[C@@H](CC(N)=O)C(=O)N1)C(=O)NCC(N)=O [vasopressin] | 94.8 | 93 | 88 | 87.5 | 99.2 | 101 | 98 | 86.3 | 92.3 | 99.5 | 101 | 99.1 | 98.1 | 94 | 99.1 | – | – | – | – | – | > 10 | > 10 | > 10 | – | 0 | 0 | 0 | – | 102 | 97.2 | 99.8 | 97.8 | 98 | > 10 | 0 |

Source: the supplement of paper PMC13380429
